In the supplement of paper PMC6045584:
± gives the standard deviation of the averaged measurements.

Legend:
MDV3100 = compound: CNC(=O)c1ccc(N2C(=S)N(c3ccc(C#N)c(C(F)(F)F)c3)C(=O)C2(C)C)cc1F [MDV3100]; assay: surviving fraction relative to DMSO-only wells; higher = less growth inhibition; details: exposure time: 5 days
Summary of the method: (§1)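 Continuous five-day exposure to inhibitors at 0.5, 1, 5, 10, 50, 100, 500 and 1000 nM started 24 hours after log-phase tumour cell lines were seeded at 250–500 cells per well in 384-well plates. Luminescence was read after 10 minutes at room temperature. Viability is given as surviving fraction, meaning CellTiter-Glo luminescence normalised to the median of DMSO-only wells.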

TIOGUANINE = compound: Nc1nc2[nH]cnc2c(=S)[nH]1 [TIOGUANINE]; assay: as above; details: exposure time: 5 days
Summary of the method: as §1

Test System | surviving fraction (MDV3100; 0.5 nM) | surviving fraction (MDV3100; 1 nM) | surviving fraction (MDV3100; 5 nM) | surviving fraction (MDV3100; 10 nM) | surviving fraction (MDV3100; 50 nM) | surviving fraction (MDV3100; 100 nM) | surviving fraction (MDV3100; 500 nM) | surviving fraction (MDV3100; 1000 nM) | surviving fraction (TIOGUANINE; 0.5 nM) | surviving fraction (TIOGUANINE; 1 nM) | surviving fraction (TIOGUANINE; 5 nM) | surviving fraction (TIOGUANINE; 10 nM) | surviving fraction (TIOGUANINE; 50 nM) | surviving fraction (TIOGUANINE; 100 nM) | surviving fraction (TIOGUANINE; 500 nM) | surviving fraction (TIOGUANINE; 1000 nM)
MDAMB231 BREAST | 0.961 ± 0.034 | 0.954 ± 0.035 | 0.978 ± 0.022 | 0.969 ± 0.012 | 0.988 ± 0.034 | 0.997 ± 0.025 | 0.96 ± 0.026 | 0.944 ± 0.014 | 0.988 ± 0.027 | 0.994 ± 0.021 | 1.01 ± 0.027 | 0.994 ± 0.028 | 1.01 ± 0.035 | 1.01 ± 0.035 | 0.74 ± 0.039 | 0.573 ± 0.016
ASKA SYNOVIAL | 1.01 ± 0.051 | 0.966 ± 0.037 | 1.05 ± 0.017 | 0.59 ± 0.051 | 1.15 ± 0.13 | 1.07 ± 0.065 | 1.14 ± 0.095 | 0.678 ± 0.079 | 1.07 ± 0.051 | 1.09 ± 0.058 | 1.13 ± 0.08 | 1.08 ± 0.032 | 1.1 ± 0.068 | 1.073 ± 0.007 | 1.07 ± 0.044 | 1.03 ± 0.011
SG43 HEADNECK | 0.866 ± 0.21 | 1.01 ± 0.25 | 0.913 ± 0.11 | 0.952 ± 0.14 | 0.702 ± 0.11 | 0.998 ± 0.28 | 1.17 ± 0.06 | 1.16 ± 0.065 | 1 ± 0.073 | 0.986 ± 0.23 | 0.684 ± 0.14 | 0.988 ± 0.083 | 0.778 ± 0.18 | 0.895 ± 0.15 | 0.91 ± 0.1 | 1.11 ± 0.13
SAOS2 BONE | 1.08 ± 0.054 | 1.07 ± 0.026 | 1.17 ± 0.026 | 1.07 ± 0.031 | 1.14 ± 0.033 | 1.14 ± 0.1 | 1.11 ± 0.085 | 1.07 ± 0.12 | 1 ± 0.024 | 0.966 ± 0.031 | 1.034 ± 0.0081 | 0.937 ± 0.096 | 1.15 ± 0.014 | 1.15 ± 0.097 | 1.02 ± 0.027 | 1.01 ± 0.047
SJSA1 BONE | 0.471 ± 0.053 | 1.27 ± 0.084 | 1.43 ± 0.11 | 0.332 ± 0.037 | 0.0403 ± 0.0031 | 1.49 ± 0.034 | 0.0293 ± 0.0025 | 1.49 ± 0.023 | 1.05 ± 0.038 | 1.05 ± 0.092 | 1.033 ± 0.0062 | 1.01 ± 0.035 | 1.1 ± 0.041 | 1.08 ± 0.036 | 1.016 ± 0.0081 | 0.912 ± 0.019
CASKI CERVIX | 0.904 ± 0.031 | 0.894 ± 0.047 | 0.99 ± 0.026 | 0.903 ± 0.059 | 0.944 ± 0.022 | 1.08 ± 0.073 | 0.95 ± 0.046 | 0.992 ± 0.072 | 0.902 ± 0.091 | 0.902 ± 0.056 | 0.934 ± 0.029 | 0.952 ± 0.032 | 0.9923 ± 0.0092 | 1.01 ± 0.014 | 0.962 ± 0.037 | 0.839 ± 0.072
T47D BREAST | 0.9561 ± 0.0072 | 0.988 ± 0.044 | 0.983 ± 0.021 | 0.894 ± 0.035 | 1.1 ± 0.015 | 1.02 ± 0.036 | 1.03 ± 0.047 | 0.999 ± 0.041 | 1.03 ± 0.025 | 0.984 ± 0.038 | 0.964 ± 0.016 | 0.998 ± 0.029 | 1.08 ± 0.045 | 1.06 ± 0.072 | 1.03 ± 0.061 | 0.978 ± 0.011
CME SYNOVIAL | 1.2 ± 0.075 | 0.852 ± 0.11 | 1.09 ± 0.089 | 0.18 ± 0.044 | 1.22 ± 0.053 | 1.09 ± 0.13 | 1.16 ± 0.1 | 0.451 ± 0.068 | 1.07 ± 0.067 | 1.22 ± 0.12 | 1.16 ± 0.051 | 1.22 ± 0.03 | 1.29 ± 0.021 | 1.32 ± 0.19 | 1.24 ± 0.054 | 1.08 ± 0.18
HMT3552 BREAST | 1.02 ± 0.073 | 1.02 ± 0.079 | 1.02 ± 0.013 | 1.03 ± 0.065 | 1.14 ± 0.031 | 1.23 ± 0.023 | 1.18 ± 0.053 | 1.24 ± 0.086 | 1.11 | 1.06 | 1.05 | 1.04 | 1.05 | 1.12 | 0.591 | 0.38
HCC1954 BREAST | 1.12 ± 0.018 | 0.975 ± 0.18 | 1.17 ± 0.19 | 1.25 ± 0.25 | 0.919 ± 0.077 | 0.909 ± 0.017 | 0.9483 ± 0.0088 | 0.771 ± 0.012 | 0.867 ± 0.18 | 0.986 ± 0.24 | 1.08 ± 0.075 | 0.96 ± 0.1 | 0.997 ± 0.18 | 0.911 ± 0.05 | 0.969 ± 0.054 | 0.871 ± 0.051
CADOES1 SOFT TISSUE | 0.925 ± 0.1 | 0.911 ± 0.12 | 0.777 ± 0.092 | 0.848 ± 0.07 | 0.871 ± 0.087 | 0.899 ± 0.093 | 0.955 ± 0.068 | 1.05 ± 0.02 | 0.965 ± 0.12 | 0.922 ± 0.059 | 0.93 ± 0.067 | 0.955 ± 0.045 | 0.989 ± 0.15 | 0.952 ± 0.097 | 0.842 ± 0.095 | 0.78 ± 0.048
HCC70 BREAST | 0.994 ± 0.021 | 0.955 ± 0.052 | 0.992 ± 0.085 | 0.963 ± 0.16 | 1.06 ± 0.082 | 0.979 ± 0.051 | 0.975 ± 0.076 | 0.88 ± 0.058 | 1.05 ± 0.03 | 0.896 ± 0.043 | 1.03 ± 0.069 | 1 ± 0.013 | 1.04 ± 0.13 | 1.02 ± 0.052 | 1.04 ± 0.059 | 1.04 ± 0.1
SIHA CERVIX | 0.88 ± 0.024 | 0.824 ± 0.067 | 0.999 ± 0.038 | 0.97 ± 0.057 | 1.01 ± 0.076 | 0.975 ± 0.043 | 0.875 ± 0.086 | 0.844 ± 0.055 | 0.848 ± 0.07 | 0.858 ± 0.097 | 0.994 ± 0.044 | 0.967 ± 0.084 | 0.97 ± 0.043 | 0.987 ± 0.078 | 0.817 ± 0.029 | 0.856 ± 0.029
HCC78 LUNG | 0.976 ± 0.13 | 0.75 ± 0.27 | 1.03 ± 0.11 | 0.972 ± 0.14 | 0.799 ± 0.14 | 0.925 ± 0.092 | 0.664 ± 0.045 | 0.451 ± 0.051 | 0.726 ± 0.091 | 0.781 ± 0.21 | 0.854 ± 0.13 | 0.685 ± 0.23 | 0.866 ± 0.086 | 0.853 ± 0.059 | 0.743 ± 0.2 | 0.773 ± 0.088
NOS1 BONE | 1.18 ± 0.11 | 1 ± 0.043 | 1.11 ± 0.069 | 1.1 ± 0.2 | 1.04 ± 0.062 | 1.16 ± 0.086 | 0.972 ± 0.073 | 1.03 ± 0.027 | 1.12 ± 0.037 | 1.14 ± 0.028 | 1.15 ± 0.093 | 1.17 ± 0.075 | 1.23 ± 0.1 | 1.19 ± 0.058 | 1.06 ± 0.099 | 1.05 ± 0.065
OS25HAL BONE | 0.968 ± 0.03 | 0.932 ± 0.015 | 0.962 ± 0.018 | 0.959 ± 0.011 | 1.06 ± 0.013 | 1.06 ± 0.03 | 1.04 ± 0.026 | 1.01 ± 0.057 | 0.943 ± 0.015 | 0.951 ± 0.017 | 0.967 ± 0.0017 | 0.933 ± 0.027 | 1 ± 0.024 | 1.01 ± 0.033 | 1.002 ± 0.0066 | 0.955 ± 0.032
NY BONE | 0.886 ± 0.021 | 0.887 ± 0.029 | 0.943 ± 0.035 | 0.933 ± 0.023 | 0.93 ± 0.0093 | 1.01 ± 0.022 | 0.924 ± 0.026 | 0.884 ± 0.039 | 0.936 ± 0.013 | 0.955 ± 0.017 | 1.01 ± 0.022 | 0.972 ± 0.015 | 1.02 ± 0.049 | 1.01 ± 0.029 | 0.946 ± 0.025 | 0.902 ± 0.039
